Measurements: ChEMBL document CHEMBL1201862, “PubChem BioAssay data set” (2004)
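Results reflect a 48-hour exposure of cells in 96-well plates to compound at five concentrations. Here, GI50 denotes the concentration required for 50% inhibition of growth.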 The source made the active and inactive calls. Cut-off read from the data, not from the text of the source: active = GI50 up to about 1.1 µM and inactive = higher.

Columns and labels:
Assay in all cases: inhibition of tumour cell growth, NCI panel, 48 h
[1] = test system: 786-0
[2] = test system: A498
[3] = test system: A549
[4] = test system: ACHN
[5] = test system: CAKI-1
[6] = test system: CCRF-CEM
[7] = test system: COLO 205
[8] = test system: DLD-1
[9] = test system: DMS-114
[10] = test system: DMS-273
[11] = test system: EKVX
[12] = test system: HCC 2998
[13] = test system: HCT-116
[14] = test system: HCT-15
[15] = test system: HL-60
[16] = test system: HOP-18
[17] = test system: HOP-62
[18] = test system: HOP-92
[19] = test system: HT-29
[20] = test system: IGROV-1
[21] = test system: K562
[22] = test system: KM-20L2
[23] = test system: KM12
[24] = test system: LOX IMVI
[25] = test system: LXFL 529
[26] = test system: M14
[27] = test system: M19-MEL
[28] = test system: MOLT-4
[29] = test system: Malme-3M
[30] = test system: NCI-H226
[31] = test system: NCI-H23
[32] = test system: NCI-H460
[33] = test system: NCI-H522
[34] = test system: OVCAR-3
[35] = test system: OVCAR-4
[36] = test system: OVCAR-5
[37] = test system: OVCAR-8
[38] = test system: RPMI-8226
[39] = test system: RXF 393
[40] = test system: RXF 631
[41] = test system: SF-268
[42] = test system: SF-295
[43] = test system: SF-539
[44] = test system: SK-MEL-28
[45] = test system: SK-MEL-2
[46] = test system: SK-MEL-5
[47] = test system: SK-OV-3
[48] = test system: SN12C
[49] = test system: SNB-19
[50] = test system: SNB-75
[51] = test system: SNB-78
[52] = test system: SR
[53] = test system: SW-620
[54] = test system: TK-10
[55] = test system: U-251
[56] = test system: UACC-257
[57] = test system: UACC-62
[58] = test system: UO-31
[59] = test system: XF498

Compound: CCOC(=O)CCn1ncc(Cl)c(Cl)c1=O
- GI50 [1]: 14.3 µM (inactive)
- GI50 [2]: 22.7 µM (inactive)
- GI50 [3]: 15.6 µM (inactive)
- GI50 [4]: 17 µM (inactive)
- GI50 [5]: 6.18 µM (inactive)
- GI50 [6]: 2.9 µM (inactive)
- GI50 [7]: 9.23 µM (inactive)
- GI50 [8]: 5.5 µM (inactive)
- GI50 [9]: 2.1 µM (inactive)
- GI50 [10]: 9.46 µM (inactive)
- GI50 [11]: 18.7 µM (inactive)
- GI50 [12]: 3.93 µM (inactive)
- GI50 [13]: 11.9 µM (inactive)
- GI50 [14]: 2150 nM
- GI50 [15]: 2.67 µM (inactive)
- GI50 [16]: 3.99 µM (inactive)
- GI50 [17]: 21.4 µM (inactive)
- GI50 [18]: 11.9 µM (inactive)
- GI50 [19]: 4.24 µM (inactive)
- GI50 [20]: 11.1 µM (inactive)
- GI50 [21]: 2.79 µM (inactive)
- GI50 [22]: 14.2 µM (inactive)
- GI50 [23]: 4.86 µM (inactive)
- GI50 [24]: 8.53 µM (inactive)
- GI50 [25]: 3.84 µM (inactive)
- GI50 [26]: 4.21 µM (inactive)
- GI50 [27]: 2.58 µM (inactive)
- GI50 [28]: 3.13 µM (inactive)
- GI50 [29]: 14.2 µM (inactive)
- GI50 [30]: 10.9 µM (inactive)
- GI50 [31]: 2.27 µM (inactive)
- GI50 [32]: 11.9 µM (inactive)
- GI50 [33]: 291 nM (active)
- GI50 [34]: 3.57 µM (inactive)
- GI50 [35]: 1.54 µM (inactive)
- GI50 [36]: 16.7 µM (inactive)
- GI50 [37]: 5.98 µM (inactive)
- GI50 [38]: 2.38 µM (inactive)
- GI50 [39]: 11.4 µM (inactive)
- GI50 [40]: 2.97 µM (inactive)
- GI50 [41]: 7.55 µM (inactive)
- GI50 [42]: 19.5 µM (inactive)
- GI50 [43]: 13.9 µM (inactive)
- GI50 [44]: 2.65 µM (inactive)
- GI50 [45]: 8.53 µM (inactive)
- GI50 [46]: 11.8 µM (inactive)
- GI50 [47]: 26.7 µM (inactive)
- GI50 [48]: 13.7 µM (inactive)
- GI50 [49]: 13.5 µM (inactive)
- GI50 [50]: 14.8 µM (inactive)
- GI50 [51]: 6.22 µM (inactive)
- GI50 [52]: 2.89 µM (inactive)
- GI50 [53]: 3.31 µM (inactive)
- GI50 [54]: 17.9 µM (inactive)
- GI50 [55]: 5.89 µM (inactive)
- GI50 [56]: 11.2 µM (inactive)
- GI50 [57]: 6.3 µM (inactive)
- GI50 [58]: 15.7 µM (inactive)
- GI50 [59]: 20.5 µM (inactive)

Compound: C[n+]1c2ccccc2cc2c(CNC(CCCNC(=N)N)C(=O)O)cccc21 (stereo not drawn)
- GI50 [1]: 0.75 µM (active)
- GI50 [2]: 3.51 µM (inactive)
- GI50 [3]: 3.05 µM (inactive)
- GI50 [4]: 0.594 µM (active)
- GI50 [5]: 0.518 µM (active)
- GI50 [6]: 0.179 µM (active)
- GI50 [7]: 0.248 µM (active)
- GI50 [8]: 0.351 µM (active)
- GI50 [9]: 0.232 µM (active)
- GI50 [10]: 1.59 µM (inactive)
- GI50 [11]: 4.66 µM (inactive)
- GI50 [12]: 2.24 µM (inactive)
- GI50 [13]: 0.301 µM (active)
- GI50 [14]: 394 nM
- GI50 [15]: 0.149 µM (active)
- GI50 [16]: 2.05 µM (inactive)
- GI50 [17]: 2.7 µM (inactive)
- GI50 [18]: 1.3 µM (inactive)
- GI50 [19]: 0.303 µM (active)
- GI50 [20]: 7.4 µM (inactive)
- GI50 [21]: 0.22 µM (active)
- GI50 [22]: 0.641 µM (active)
- GI50 [23]: 0.448 µM (active)
- GI50 [24]: 0.493 µM (active)
- GI50 [25]: 0.733 µM (active)
- GI50 [26]: 3.31 µM (inactive)
- GI50 [27]: 0.413 µM (active)
- GI50 [28]: 0.208 µM (active)
- GI50 [29]: 2.05 µM (inactive)
- GI50 [30]: 3.05 µM (inactive)
- GI50 [31]: 3.14 µM (inactive)
- GI50 [32]: 1.9 µM (inactive)
- GI50 [33]: 1400 nM (inactive)
- GI50 [34]: 2 µM (inactive)
- GI50 [35]: 11.4 µM (inactive)
- GI50 [36]: 4.5 µM (inactive)
- GI50 [37]: 1.8 µM (inactive)
- GI50 [38]: 0.0682 µM (active)
- GI50 [39]: 0.0458 µM (active)
- GI50 [40]: 3.37 µM (inactive)
- GI50 [41]: 0.244 µM (active)
- GI50 [42]: 3.17 µM (inactive)
- GI50 [43]: 1.23 µM (inactive)
- GI50 [44]: 1.34 µM (inactive)
- GI50 [45]: 4.03 µM (inactive)
- GI50 [46]: 2.21 µM (inactive)
- GI50 [47]: 1.99 µM (inactive)
- GI50 [48]: 0.65 µM (active)
- GI50 [49]: 2.37 µM (inactive)
- GI50 [50]: 5.62 µM (inactive)
- GI50 [51]: 2.31 µM (inactive)
- GI50 [52]: 0.184 µM (active)
- GI50 [53]: 0.378 µM (active)
- GI50 [54]: 0.67 µM (active)
- GI50 [55]: 1.61 µM (inactive)
- GI50 [56]: 0.638 µM (active)
- GI50 [57]: 0.643 µM (active)
- GI50 [58]: 0.959 µM (active)
- GI50 [59]: 2.07 µM (inactive)
